Results from ChEMBL document CHEMBL3991601, “The target landscape of clinical kinase drugs” (Science, 2017).
Activity calls are given as the source filed them. Cut-off read from the data, not from the text of the source, for most assays here: actives have a measured Kd and inactives only a lower limit.

Key:
[1] = molecular target: Fibroblast growth factor receptor 1 (Homo sapiens, UniProt P11362)
[2] = molecular target: Ribosomal protein S6 kinase alpha-6 (Homo sapiens, UniProt Q9UK32)
[3] = molecular target: Rho-associated protein kinase 2 (Homo sapiens, UniProt O75116)
Chain of Rho-associated protein kinase 2 (O75116 whole entry): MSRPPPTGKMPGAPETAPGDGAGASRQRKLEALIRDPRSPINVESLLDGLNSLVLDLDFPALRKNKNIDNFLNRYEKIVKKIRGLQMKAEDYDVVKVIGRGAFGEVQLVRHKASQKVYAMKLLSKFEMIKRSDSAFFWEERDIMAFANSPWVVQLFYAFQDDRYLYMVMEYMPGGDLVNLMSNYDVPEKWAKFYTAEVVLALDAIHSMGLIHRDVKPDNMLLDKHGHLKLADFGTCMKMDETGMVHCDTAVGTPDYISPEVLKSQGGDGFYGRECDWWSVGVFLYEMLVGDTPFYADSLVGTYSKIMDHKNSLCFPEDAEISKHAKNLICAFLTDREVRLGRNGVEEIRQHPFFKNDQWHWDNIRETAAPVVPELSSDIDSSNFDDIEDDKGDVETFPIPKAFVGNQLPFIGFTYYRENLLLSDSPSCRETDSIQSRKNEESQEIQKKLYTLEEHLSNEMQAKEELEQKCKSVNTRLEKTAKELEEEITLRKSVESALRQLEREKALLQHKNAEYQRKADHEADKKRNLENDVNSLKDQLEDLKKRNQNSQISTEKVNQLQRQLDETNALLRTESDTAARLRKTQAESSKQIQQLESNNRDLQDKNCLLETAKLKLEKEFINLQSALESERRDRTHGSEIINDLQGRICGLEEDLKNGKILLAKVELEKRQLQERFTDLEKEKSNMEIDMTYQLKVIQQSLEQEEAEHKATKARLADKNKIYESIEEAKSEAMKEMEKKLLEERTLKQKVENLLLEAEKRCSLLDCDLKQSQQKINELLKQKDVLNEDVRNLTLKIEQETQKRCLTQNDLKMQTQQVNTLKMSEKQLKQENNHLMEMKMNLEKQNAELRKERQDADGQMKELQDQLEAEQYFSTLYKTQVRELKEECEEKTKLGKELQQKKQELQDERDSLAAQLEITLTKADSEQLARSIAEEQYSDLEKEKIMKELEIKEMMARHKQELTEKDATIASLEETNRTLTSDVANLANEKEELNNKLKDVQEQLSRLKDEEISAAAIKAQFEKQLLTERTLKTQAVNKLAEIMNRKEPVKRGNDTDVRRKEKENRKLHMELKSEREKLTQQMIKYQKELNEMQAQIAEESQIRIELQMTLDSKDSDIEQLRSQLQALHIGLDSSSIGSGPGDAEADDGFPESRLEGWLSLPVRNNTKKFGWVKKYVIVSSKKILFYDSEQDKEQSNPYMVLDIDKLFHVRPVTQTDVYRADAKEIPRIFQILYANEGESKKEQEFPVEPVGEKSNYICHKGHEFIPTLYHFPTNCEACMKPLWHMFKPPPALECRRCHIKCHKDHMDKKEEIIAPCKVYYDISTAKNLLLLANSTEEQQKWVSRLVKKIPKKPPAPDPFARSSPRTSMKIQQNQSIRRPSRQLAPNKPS

[4] = molecular target: Mitogen-activated protein kinase 10 (Homo sapiens, UniProt P53779)
Chain of Mitogen-activated protein kinase 10 (P53779 whole entry): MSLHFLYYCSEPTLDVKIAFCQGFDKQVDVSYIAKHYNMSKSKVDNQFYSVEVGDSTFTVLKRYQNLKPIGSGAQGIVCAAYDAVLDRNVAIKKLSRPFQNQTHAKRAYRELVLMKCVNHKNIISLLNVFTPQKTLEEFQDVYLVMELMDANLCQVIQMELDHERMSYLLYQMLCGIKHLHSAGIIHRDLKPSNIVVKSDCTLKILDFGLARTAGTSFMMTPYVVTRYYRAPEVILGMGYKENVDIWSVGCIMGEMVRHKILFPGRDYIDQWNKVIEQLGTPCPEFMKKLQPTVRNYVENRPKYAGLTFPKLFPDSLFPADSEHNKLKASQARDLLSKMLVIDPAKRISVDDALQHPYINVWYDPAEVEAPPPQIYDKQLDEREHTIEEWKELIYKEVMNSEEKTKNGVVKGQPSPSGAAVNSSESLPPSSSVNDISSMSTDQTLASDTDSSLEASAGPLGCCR

[5] = molecular target: T1, Mitogen-activated protein kinase kinase kinase 6 (Homo sapiens, UniProt O95382)
T1 sequence (O95382 whole entry): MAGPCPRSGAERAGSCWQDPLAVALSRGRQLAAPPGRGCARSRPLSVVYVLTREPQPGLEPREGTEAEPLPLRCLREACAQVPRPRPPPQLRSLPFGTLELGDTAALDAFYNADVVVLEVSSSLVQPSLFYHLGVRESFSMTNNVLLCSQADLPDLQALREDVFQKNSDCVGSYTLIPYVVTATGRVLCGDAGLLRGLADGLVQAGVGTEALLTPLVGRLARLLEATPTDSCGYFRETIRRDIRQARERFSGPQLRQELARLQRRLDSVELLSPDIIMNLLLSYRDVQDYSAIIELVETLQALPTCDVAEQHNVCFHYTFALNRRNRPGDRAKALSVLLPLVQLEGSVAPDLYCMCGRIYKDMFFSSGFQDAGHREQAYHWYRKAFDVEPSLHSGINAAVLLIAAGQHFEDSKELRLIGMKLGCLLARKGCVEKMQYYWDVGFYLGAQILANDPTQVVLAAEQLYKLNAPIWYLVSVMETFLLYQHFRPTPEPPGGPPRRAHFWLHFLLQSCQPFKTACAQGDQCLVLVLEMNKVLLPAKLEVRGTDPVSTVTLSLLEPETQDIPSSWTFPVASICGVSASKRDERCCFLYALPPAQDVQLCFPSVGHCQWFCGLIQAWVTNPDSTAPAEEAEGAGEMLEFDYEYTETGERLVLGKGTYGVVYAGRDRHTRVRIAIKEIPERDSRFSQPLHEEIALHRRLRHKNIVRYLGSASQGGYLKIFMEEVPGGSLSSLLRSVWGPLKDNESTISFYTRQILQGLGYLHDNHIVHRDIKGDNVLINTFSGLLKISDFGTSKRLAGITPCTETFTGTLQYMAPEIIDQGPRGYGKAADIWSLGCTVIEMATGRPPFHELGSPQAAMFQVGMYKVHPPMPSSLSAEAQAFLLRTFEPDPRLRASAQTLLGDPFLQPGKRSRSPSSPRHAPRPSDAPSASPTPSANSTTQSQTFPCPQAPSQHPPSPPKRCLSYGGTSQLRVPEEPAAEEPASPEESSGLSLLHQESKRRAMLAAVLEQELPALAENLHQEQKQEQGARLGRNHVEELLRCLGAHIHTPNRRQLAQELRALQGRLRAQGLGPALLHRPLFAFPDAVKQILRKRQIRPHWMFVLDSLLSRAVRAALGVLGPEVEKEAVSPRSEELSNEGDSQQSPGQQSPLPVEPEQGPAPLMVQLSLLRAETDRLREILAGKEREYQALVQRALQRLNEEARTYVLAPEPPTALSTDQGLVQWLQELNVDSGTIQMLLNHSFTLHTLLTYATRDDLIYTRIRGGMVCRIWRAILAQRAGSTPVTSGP

[6] = molecular target: Phosphatidylethanolamine-binding protein 1 (Homo sapiens, UniProt P30086)
Chain of Phosphatidylethanolamine-binding protein 1 (P30086 whole entry): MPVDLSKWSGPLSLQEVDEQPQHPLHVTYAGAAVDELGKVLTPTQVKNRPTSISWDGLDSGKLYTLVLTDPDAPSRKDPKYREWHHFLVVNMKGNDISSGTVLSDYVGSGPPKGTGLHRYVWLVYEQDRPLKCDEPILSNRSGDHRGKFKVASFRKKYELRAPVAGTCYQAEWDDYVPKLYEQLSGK

[7] = molecular target: T2, Peroxisomal acyl-coenzyme A oxidase 3 (Homo sapiens, UniProt O15254)
T2 sequence (O15254 whole entry): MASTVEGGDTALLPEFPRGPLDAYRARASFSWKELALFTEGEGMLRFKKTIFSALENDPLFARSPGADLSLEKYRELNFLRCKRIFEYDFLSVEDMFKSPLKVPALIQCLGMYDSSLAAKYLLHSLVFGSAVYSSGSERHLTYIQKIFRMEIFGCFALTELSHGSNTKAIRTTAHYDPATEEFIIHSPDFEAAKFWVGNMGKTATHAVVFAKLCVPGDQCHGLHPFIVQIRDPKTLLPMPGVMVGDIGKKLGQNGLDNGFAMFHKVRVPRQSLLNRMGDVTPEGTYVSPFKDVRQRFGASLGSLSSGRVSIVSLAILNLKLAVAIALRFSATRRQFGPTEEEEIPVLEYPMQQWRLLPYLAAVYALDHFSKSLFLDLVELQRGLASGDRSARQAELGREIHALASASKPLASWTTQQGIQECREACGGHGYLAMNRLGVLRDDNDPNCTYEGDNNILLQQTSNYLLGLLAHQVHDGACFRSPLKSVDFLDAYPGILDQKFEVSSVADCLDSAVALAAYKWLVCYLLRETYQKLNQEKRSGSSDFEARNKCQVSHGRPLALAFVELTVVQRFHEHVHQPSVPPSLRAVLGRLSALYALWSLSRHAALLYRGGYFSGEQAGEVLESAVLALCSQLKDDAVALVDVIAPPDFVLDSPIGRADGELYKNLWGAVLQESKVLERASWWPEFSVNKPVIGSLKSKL
Note: in the data inactive means no Kd found up to 30 µM.

Chain of Fibroblast growth factor receptor 1 (P11362 whole entry): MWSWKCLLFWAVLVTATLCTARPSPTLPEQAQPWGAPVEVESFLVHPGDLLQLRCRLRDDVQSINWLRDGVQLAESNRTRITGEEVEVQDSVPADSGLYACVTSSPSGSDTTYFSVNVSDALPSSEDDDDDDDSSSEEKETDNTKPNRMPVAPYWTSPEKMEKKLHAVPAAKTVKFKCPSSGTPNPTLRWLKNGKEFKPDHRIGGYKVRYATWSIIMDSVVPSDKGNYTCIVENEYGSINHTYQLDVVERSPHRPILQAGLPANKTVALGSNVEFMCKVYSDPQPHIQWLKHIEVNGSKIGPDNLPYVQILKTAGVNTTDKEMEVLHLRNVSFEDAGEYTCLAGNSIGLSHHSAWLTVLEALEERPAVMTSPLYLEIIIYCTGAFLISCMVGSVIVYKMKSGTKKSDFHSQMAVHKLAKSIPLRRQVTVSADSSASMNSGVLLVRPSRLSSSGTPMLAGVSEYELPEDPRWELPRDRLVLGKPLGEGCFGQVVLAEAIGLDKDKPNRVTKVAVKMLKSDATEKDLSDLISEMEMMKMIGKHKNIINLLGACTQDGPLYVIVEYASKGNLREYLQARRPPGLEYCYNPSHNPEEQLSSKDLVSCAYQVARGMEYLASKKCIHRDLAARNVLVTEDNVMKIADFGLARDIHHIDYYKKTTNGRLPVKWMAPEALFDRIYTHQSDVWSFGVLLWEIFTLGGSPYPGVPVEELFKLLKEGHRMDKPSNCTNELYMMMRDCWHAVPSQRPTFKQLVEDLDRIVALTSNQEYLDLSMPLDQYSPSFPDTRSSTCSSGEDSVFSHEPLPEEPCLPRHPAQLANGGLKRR
Chain of Ribosomal protein S6 kinase alpha-6 (Q9UK32 whole entry): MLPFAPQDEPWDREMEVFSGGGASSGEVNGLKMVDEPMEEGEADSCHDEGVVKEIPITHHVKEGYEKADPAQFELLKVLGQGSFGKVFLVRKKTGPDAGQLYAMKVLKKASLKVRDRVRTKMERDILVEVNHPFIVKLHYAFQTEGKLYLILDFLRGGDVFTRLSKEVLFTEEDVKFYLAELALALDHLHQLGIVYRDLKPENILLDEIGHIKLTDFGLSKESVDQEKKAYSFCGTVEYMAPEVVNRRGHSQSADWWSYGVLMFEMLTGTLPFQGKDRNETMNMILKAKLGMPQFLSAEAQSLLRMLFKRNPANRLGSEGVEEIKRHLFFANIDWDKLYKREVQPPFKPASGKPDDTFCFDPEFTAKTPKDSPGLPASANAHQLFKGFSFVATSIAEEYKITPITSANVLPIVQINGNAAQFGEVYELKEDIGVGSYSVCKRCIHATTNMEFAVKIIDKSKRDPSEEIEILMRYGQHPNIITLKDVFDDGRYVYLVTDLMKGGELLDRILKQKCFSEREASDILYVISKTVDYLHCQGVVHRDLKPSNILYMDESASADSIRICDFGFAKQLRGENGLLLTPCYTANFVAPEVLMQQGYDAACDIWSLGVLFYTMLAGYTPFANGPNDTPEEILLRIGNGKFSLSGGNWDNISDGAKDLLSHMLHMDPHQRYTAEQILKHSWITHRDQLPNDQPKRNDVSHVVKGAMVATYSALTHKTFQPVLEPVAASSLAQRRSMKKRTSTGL

Kd [1]	Kd [2]	Kd [3]	Kd [4]	Kd [5]	Kd [6]	Kd [7]	SMILES
> 30 µM (inactive)	1.27 µM (active)	> 30 µM (inactive)	> 30 µM (inactive)	> 30 µM (inactive)	> 30 µM (inactive)	> 30 µM (inactive)	Cn1cc(-c2cnn3c(N)c(Br)c([C@@H]4CCCNC4)nc23)cn1 [SCH-900776]
> 30 µM (inactive)	> 30 µM (inactive)	> 30 µM (inactive)	> 30 µM (inactive)	> 30 µM (inactive)	> 30 µM (inactive)	> 30 µM (inactive)	CO[C@H]1C[C@@H]2CC[C@@H](C)[C@@](O)(O2)C(=O)C(=O)N2CCCC[C@H]2C(=O)O[C@H]([C@H](C)C[C@@H]2CC[C@@H](O)[C@H](OC)C2)CC(=O)[C@H](C)/C=C(\C)[C@@H](O)[C@@H](OC)C(=O)[C@H](C)C[C@H](C)/C=C/C=C/C=C/1C [SIROLIMUS]
1.39 µM (active)	0.899 µM (active)	> 30 µM (inactive)	> 30 µM (inactive)	> 30 µM (inactive)	> 30 µM (inactive)	> 30 µM (inactive)	CCS(=O)(=O)c1cccc(-c2cc(C(=O)NC3CCN(C)CC3)c(C)c3[nH]c4ncc(C)cc4c23)c1 [TAK-901]
> 30 µM (inactive)	> 30 µM (inactive)	> 30 µM (inactive)	> 30 µM (inactive)	> 30 µM (inactive)	> 30 µM (inactive)	> 30 µM (inactive)	CO[C@H]1C[C@@H]2CC[C@@H](C)[C@@](O)(O2)C(=O)C(=O)N2CCCC[C@H]2C(=O)O[C@H]([C@H](C)C[C@@H]2CC[C@@H](OC(=O)C(C)(CO)CO)[C@H](OC)C2)CC(=O)[C@H](C)/C=C(\C)[C@@H](O)[C@@H](OC)C(=O)[C@H](C)C[C@H](C)/C=C/C=C/C=C/1C [TEMSIROLIMUS]
> 30 µM (inactive)	> 30 µM (inactive)	> 30 µM (inactive)	> 30 µM (inactive)	> 30 µM (inactive)	> 30 µM (inactive)	> 30 µM (inactive)	COc1cc2c(Nc3ccc(Cl)c(Cl)c3F)ncnc2cc1OC[C@@H]1C[C@@H]2CN(C)C[C@@H]2C1 [TESEVATINIB]
> 30 µM (inactive)	> 30 µM (inactive)	> 30 µM (inactive)	> 30 µM (inactive)	> 30 µM (inactive)	> 30 µM (inactive)	> 30 µM (inactive)	O=C(Cc1ccc(-c2ccc(OCCN3CCOCC3)cc2)cn1)NCc1ccccc1 [TIRBANIBULIN]
> 30 µM (inactive)	> 30 µM (inactive)	> 30 µM (inactive)	> 30 µM (inactive)	> 30 µM (inactive)	> 30 µM (inactive)	> 30 µM (inactive)	O=C1NC(=O)[C@@H](c2cn3c4c(cccc24)CCC3)[C@@H]1c1c[nH]c2ccccc12 [TIVANTINIB]
> 30 µM (inactive)	> 30 µM (inactive)	> 30 µM (inactive)	> 30 µM (inactive)	> 30 µM (inactive)	> 30 µM (inactive)	> 30 µM (inactive)	C[C@@H](NC(=O)c1ncnc(N)c1Cl)c1ncc(C(=O)Nc2cc(C(F)(F)F)c(Cl)cn2)s1 [TOVORAFENIB]
> 30 µM (inactive)	> 30 µM (inactive)	2.28 µM (active)	> 30 µM (inactive)	> 30 µM (inactive)	> 30 µM (inactive)	> 30 µM (inactive)	Cn1ncc(Cl)c1-c1cc(C(=O)N[C@H](CN)Cc2ccc(F)c(F)c2)oc1Cl [UPROSERTIB]
0.009 µM (active)	> 30 µM (inactive)	> 30 µM (inactive)	> 30 µM (inactive)	> 30 µM (inactive)	> 30 µM (inactive)	> 30 µM (inactive)	CC(C)c1cc(CNc2nc(Nc3cc(C4CC4)[nH]n3)cc(N3CCN(C)CC3)n2)on1 [XL-228]

More lines, now with the values behind:

SMILES	Kd [1]	Kd [2]	Kd [3]	Kd [4]	Kd [5]	Kd [6]	Kd [7]
COc1ncc(-c2ccc3nccc(-c4ccnnc4)c3c2)cc1NS(=O)(=O)c1ccc(F)cc1F [OMIPALISIB]	> 30 µM (inactive)	> 30 µM (inactive)	> 30 µM (inactive)	> 30 µM (inactive)	> 30 µM (inactive)	> 30 µM (inactive)	> 30 µM (inactive)
CCOc1cc2ncc(C#N)c(Nc3ccc(F)c(Cl)c3)c2cc1NC(=O)/C=C/CN(C)C [PELITINIB]	> 30 µM (inactive)	> 30 µM (inactive)	> 30 µM (inactive)	> 30 µM (inactive)	> 30 µM (inactive)	> 30 µM (inactive)	> 30 µM (inactive)
CCCCCCCCCCCCCCCCCCOP(=O)([O-])OC1CC[N+](C)(C)CC1 [PERIFOSINE]	> 30 µM (inactive)	> 30 µM (inactive)	> 30 µM (inactive)	> 30 µM (inactive)	> 30 µM (inactive)	> 30 µM (inactive)	> 30 µM (inactive)
Cc1nc(Nc2n[nH]c3c2CN(C(=O)N[C@H](CN(C)C)c2ccccc2)C3(C)C)c2sccc2n1 [PF-03758309]	0.208 µM (active)	0.004 µM (active)	> 30 µM (inactive)	> 30 µM (inactive)	> 30 µM (inactive)	> 30 µM (inactive)	> 30 µM (inactive)
Cc1cnc(NC(=O)Nc2cc(Br)c(C)cc2OC[C@@H]2CNCCO2)cn1 [RABUSERTIB]	> 30 µM (inactive)	> 30 µM (inactive)	> 30 µM (inactive)	> 30 µM (inactive)	> 30 µM (inactive)	> 30 µM (inactive)	> 30 µM (inactive)
CO[C@H]1C[C@@H]2CC[C@@H](C)[C@@](O)(O2)C(=O)C(=O)N2CCCC[C@H]2C(=O)O[C@H]([C@H](C)C[C@@H]2CC[C@@H](OP(C)(C)=O)[C@H](OC)C2)CC(=O)[C@H](C)/C=C(\C)[C@@H](O)[C@@H](OC)C(=O)[C@H](C)C[C@H](C)/C=C/C=C/C=C/1C [RIDAFOROLIMUS]	> 30 µM (inactive)	> 30 µM (inactive)	> 30 µM (inactive)	> 30 µM (inactive)	> 30 µM (inactive)	> 30 µM (inactive)	> 30 µM (inactive)
N#CC1(c2ccc(NC(=O)c3cccnc3NCc3ccncc3)cc2)CCCC1 [RIVOCERANIB]	> 30 µM (inactive)	> 30 µM (inactive)	> 30 µM (inactive)	> 30 µM (inactive)	> 30 µM (inactive)	> 30 µM (inactive)	> 30 µM (inactive)
O=c1[nH]ccc2cc(OC3CCNCC3)ccc12 [SAR-407899 FREE BASE]	> 30 µM (inactive)	> 30 µM (inactive)	0.016 µM (active)	> 30 µM (inactive)	> 30 µM (inactive)	> 30 µM (inactive)	> 30 µM (inactive)
Cc1cc(Nc2ncnc3ccc(NC4=NC(C)(C)CO4)cc23)ccc1Oc1ccn2ncnc2c1 [TUCATINIB]	> 30 µM (inactive)	> 30 µM (inactive)	> 30 µM (inactive)	> 30 µM (inactive)	> 30 µM (inactive)	> 30 µM (inactive)	> 30 µM (inactive)
